Tests used:
MMP-2/3 = experiment: In vitro inhibition of MMPs by gelatine zymography (MMP-2/3); type: biochemical, human; conditions: concentration that inhibited approximately half of the maximal enzymatic activity; MMPs from MCF-7 conditioned media in gelatine SDS gels, incubated overnight at 37° C., pH 7.5; read-out: In vitro inhibition of matrix metalloproteinases (nM) MMP-2/3
Experimental: (§1) The compounds were tested in vitro using the following procedure: matrix metalloproteinases were obtained from culture media conditioned by MCF-7 human breast cancer cells and separated by electrophoresis on SDS-acrylamide gels (7.0%) copolymerised with gelatine (1 mg/ml, Sigma, Mo., USA). The gels containing the MMPs were then incubated with the test compounds overnight in 10 ml buffer (50 mM tris-HCl, pH 7.5, 200 mM NaCl, 5 mM CaCl2, 1 μM ZnCl2, 0.002% NaN3) at 37° C. The gels were stained for 60 min with 0.5% Coomassie brilliant blue R-250 in 10% acetic acid, destained with 10% acetic acid, incubated with 5% glycerol, and dried with a gel drier. The molar concentrations that inhibited approximately half of the maximal enzymatic activity were then determined.

MMP-9 = target: T1, MMP-9 (Homo sapiens, UniProt P14780); experiment: In vitro inhibition of MMPs by gelatine zymography (MMP-9); type: biochemical; conditions: concentration that inhibited approximately half of the maximal enzymatic activity; MMPs from MCF-7 conditioned media in gelatine SDS gels, incubated overnight at 37° C., pH 7.5; read-out: In vitro inhibition of matrix metalloproteinases (nM) MMP-9
T1 construct: matrix metalloproteinases were obtained from culture media conditioned by MCF-7 human breast cancer cells; endogenous in cells; host or cells: MCF-7 human breast cancer cells (conditioned culture medium)
T1 sequence (P14780 94-707): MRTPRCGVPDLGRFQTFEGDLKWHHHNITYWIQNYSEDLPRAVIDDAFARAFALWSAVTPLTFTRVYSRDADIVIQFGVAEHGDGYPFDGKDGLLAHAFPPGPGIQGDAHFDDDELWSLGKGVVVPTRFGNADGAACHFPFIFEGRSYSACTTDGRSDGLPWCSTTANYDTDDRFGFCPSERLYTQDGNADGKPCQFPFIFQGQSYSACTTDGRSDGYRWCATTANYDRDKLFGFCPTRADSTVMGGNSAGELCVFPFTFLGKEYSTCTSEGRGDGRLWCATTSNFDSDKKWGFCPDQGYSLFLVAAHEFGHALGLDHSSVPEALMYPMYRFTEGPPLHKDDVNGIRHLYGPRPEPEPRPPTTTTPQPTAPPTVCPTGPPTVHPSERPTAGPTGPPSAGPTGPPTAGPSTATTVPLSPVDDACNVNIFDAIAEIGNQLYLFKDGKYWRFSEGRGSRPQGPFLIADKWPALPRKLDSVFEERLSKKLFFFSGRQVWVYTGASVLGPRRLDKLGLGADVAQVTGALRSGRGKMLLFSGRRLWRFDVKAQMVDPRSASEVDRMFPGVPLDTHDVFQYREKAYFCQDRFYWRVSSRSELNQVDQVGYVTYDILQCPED
Experimental: as §1

| IC50 (MMP-2/3) [nM] | IC50 (MMP-9) [nM] | Structure (SMILES) |
| --- | --- | --- |
| 1 | 1 | O=C(C[C@@H](CCCc1ccccc1)C(=O)N[C@@H](Cc1ccccc1)C(=S)NCCCc1ccccc1)NO [Example 5] |
| 1 | 1 | CNC(=S)[C@H](Cc1ccccc1)NC(=O)[C@H](CCCc1ccccc1)CC(=O)NO [Example 4, N^4 -Hydroxy-N^1-[1(S)-(methylthiocarbamoyl)-2-Rhenylethyl]-2(R)-phenylpropyl-succinamide] |
| 1 | 1 | CNC(=S)[C@H](Cc1ccccc1)NC(=O)[C@@H](CC(=O)NO)CC(C)C [Example 3, N^4 -Hydroxy-2(R)-isobutyl-N^1-[1(S)-(methylthiocarbamoyl)-2-phenylethyl]-succinamide] |
| – | 10 | CNC(=O)[C@H](Cc1ccccc1)NC(=O)[C@@H](CC(=O)NO)CC(C)C [Comparator 1, N^1 -Hydroxy-3R-isobutyl-N^4-[1S-(methylcarbamoyl)-2-phenylethyl]-succinamide, reference compound] |
